The target of the assay is Isoform 3 of Cannabinoid receptor 1 (Human, UniProt P21554). The experiment in a line: Biochemical Assay. As for the experimental part: hCB1/hCB1 b Gai Cyclic AMP (cAMP) Assays: Cells were seeded in a 384-well plate at an appropriate density from frozen cells. The cAMP assays were performed according to the manufacturer's protocol using MULTISCREEN™ TR-FRET cAMP 1.0 No Wash Assay Kit. Cells (hCB1 or hCB1 b) were pre-incubated with customer compounds for 30 minutes at rt followed by addition of EC80 CP55940 concentration and Forskolin. Cells were then incubated for 20 minutes at 37C. The reaction was terminated by sequentially adding sequentially adding MULTISCREEN™ Eu-labeled cAMP and MULTISCREEN™ 650-labeled anti-cAMP antibody in lysis buffer. The plate was then incubated at rt for 30 minutes before reading fluorescent emissions at 620 nm and 665 with excitation at 314 nm on FlexStation III (Molecular Devices).

In general, IC50 refers to the midpoint of a concentration-inhibition curve. A high value points to weaker potency.

Isoform 3 of Cannabinoid receptor 1, sequence (P21554 as listed by the source): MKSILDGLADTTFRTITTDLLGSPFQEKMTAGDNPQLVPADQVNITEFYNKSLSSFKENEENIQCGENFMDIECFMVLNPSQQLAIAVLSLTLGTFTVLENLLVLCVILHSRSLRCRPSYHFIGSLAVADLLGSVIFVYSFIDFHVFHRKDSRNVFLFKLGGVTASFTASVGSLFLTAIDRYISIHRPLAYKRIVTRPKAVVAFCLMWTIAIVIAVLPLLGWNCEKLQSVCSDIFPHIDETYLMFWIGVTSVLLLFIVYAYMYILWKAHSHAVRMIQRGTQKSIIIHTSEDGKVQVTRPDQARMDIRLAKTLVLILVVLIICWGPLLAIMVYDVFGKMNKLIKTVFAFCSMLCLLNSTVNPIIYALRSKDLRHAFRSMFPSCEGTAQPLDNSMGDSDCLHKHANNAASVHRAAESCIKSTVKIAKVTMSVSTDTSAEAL

With `C#Cc1cccc(S(=O)(=O)N=C(NCCS(N)(=O)=O)N2C[C@H](c3ccccc3)C(c3ccc(Cl)cc3)=N2)c1` [US20250248973, Compound 35], the IC50 was less than 100 nM.
